Patent US20260262643A1, “HERBICIDAL BENZOXAZINES” (FMC CORPORATION, priority 2022, published 2026)

Columns and labels:
barnyardgrass [1] = assay: Test C preemergence; assay type: in vivo, Echinochloa crusgalli
Procedure, shortened: (§1)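 Greenhouse herbicide screen, 10-day duration. Test chemicals in solvent/surfactant blend were sprayed onto soil at sowing (pre) or onto 2–10 cm seedlings at one to two leaves (post); injury scored visually against controls, 0 no effect to 100 complete control.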

blackgrass [2] = assay: Test C preemergence; assay type: in vivo, Alopecurus myosuroides
Procedure, shortened: as §1

corn [3] = assay: Test C preemergence; assay type: in vivo, Zea mays
Procedure, shortened: as §1

foxtail, giant [4] = assay: Test C preemergence; assay type: in vivo, Setaria faberi
Procedure, shortened: as §1

kochia [5] = assay: Test C preemergence; assay type: in vivo, Bassia scoparia
Procedure, shortened: as §1

oat, wild [6] = assay: Test C preemergence; assay type: in vivo, Avena fatua
Procedure, shortened: as §1

pigweed, palmer [7] = assay: Test C preemergence; assay type: in vivo, Amaranthus palmeri
Procedure, shortened: as §1

ragweed [8] = assay: Test C preemergence; assay type: in vivo, Ambrosia artemisiifolia
Procedure, shortened: as §1

ryegrass, Italian [9] = assay: Test C preemergence; assay type: in vivo, Lolium multiflorum
Procedure, shortened: as §1

soybean [10] = assay: Test C preemergence; assay type: in vivo, Glycine max
Procedure, shortened: as §1

wheat [11] = assay: Test C preemergence; assay type: in vivo, Triticum aestivum
Procedure, shortened: as §1

barnyardgrass [12] = assay: Test C postemergence; assay type: in vivo, Echinochloa crusgalli; conditions: 10 days, 0 to 100 scale (0 no effect, 100 complete control)
Procedure, shortened: as §1

blackgrass [13] = assay: Test C postemergence; assay type: in vivo, Alopecurus myosuroides; conditions: 10 days, 0 to 100 scale (0 no effect, 100 complete control)
Procedure, shortened: as §1

corn [14] = assay: Test C postemergence; assay type: in vivo, Zea mays; conditions: 10 days, 0 to 100 scale (0 no effect, 100 complete control)
Procedure, shortened: as §1

foxtail, giant [15] = assay: Test C postemergence; assay type: in vivo, Setaria faberi; conditions: 10 days, 0 to 100 scale (0 no effect, 100 complete control)
Procedure, shortened: as §1

kochia [16] = assay: Test C postemergence; assay type: in vivo, Bassia scoparia; conditions: 10 days, 0 to 100 scale (0 no effect, 100 complete control)
Procedure, shortened: as §1

oat, wild [17] = assay: Test C postemergence; assay type: in vivo, Avena fatua; conditions: 10 days, 0 to 100 scale (0 no effect, 100 complete control)
Procedure, shortened: as §1

pigweed, palmer [18] = assay: Test C postemergence; assay type: in vivo, Amaranthus palmeri; conditions: 10 days, 0 to 100 scale (0 no effect, 100 complete control)
Procedure, shortened: as §1

ragweed [19] = assay: Test C postemergence; assay type: in vivo, Ambrosia artemisiifolia; conditions: 10 days, 0 to 100 scale (0 no effect, 100 complete control)
Procedure, shortened: as §1

ryegrass, Italian [20] = assay: Test C postemergence; assay type: in vivo, Lolium multiflorum; conditions: 10 days, 0 to 100 scale (0 no effect, 100 complete control)
Procedure, shortened: as §1

soybean [21] = assay: Test C postemergence; assay type: in vivo, Glycine max; conditions: 10 days, 0 to 100 scale (0 no effect, 100 complete control)
Procedure, shortened: as §1

wheat [22] = assay: Test C postemergence; assay type: in vivo, Triticum aestivum; conditions: 10 days, 0 to 100 scale (0 no effect, 100 complete control)
Procedure, shortened: as §1

galium = assay: Test C postemergence; assay type: in vivo, Galium aparine; conditions: 10 days, 0 to 100 scale (0 no effect, 100 complete control)
Procedure, shortened: as §1

horseweed = assay: Test C postemergence; assay type: in vivo, Erigeron canadensis; conditions: 10 days, 0 to 100 scale (0 no effect, 100 complete control)
Procedure, shortened: as §1

barnyardgrass [23] = assay: Test D flooded paddy test; assay type: in vivo, Echinochloa crus-galli; conditions: 250 g ai/ha, applied to paddy water, visual rating after 13 to 14 days, scale 0 to 100 (0 no effect, 100 complete control)
Procedure, shortened: (§2)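 Compounds go straight into paddy water over 2-leaf plants in pots flooded to 3 cm. Greenhouse holding lasts 13 to 14 days. Injury is scored by eye against controls from 0 (none) to 100 (complete control).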

ducksalad = assay: Test D flooded paddy test; assay type: in vivo, Heteranthera limosa; conditions: 250 g ai/ha, applied to paddy water, visual rating after 13 to 14 days, scale 0 to 100 (0 no effect, 100 complete control)
Procedure, shortened: as §2

rice = assay: Test D flooded paddy test; assay type: in vivo, Oryza sativa; conditions: 250 g ai/ha, applied to paddy water, visual rating after 13 to 14 days, scale 0 to 100 (0 no effect, 100 complete control)
Procedure, shortened: as §2

sedge, umbrella = assay: Test D flooded paddy test; assay type: in vivo, Cyperus difformis; conditions: 250 g ai/ha, applied to paddy water, visual rating after 13 to 14 days, scale 0 to 100 (0 no effect, 100 complete control)
Procedure, shortened: as §2

[24] = 500 g ai/ha, preemergence, 0 to 100 scale (0 no effect, 100 complete control)
[25] = Preemergence, 125 g ai/ha, 0 to 100 scale, 0 no effect, 100 complete control

CCc1ncn(-c2cc(C(=O)N3CC(C(F)(F)F)Oc4c(C)cccc43)ccn2)n1 (stereo not shown) [Compound 318]
Barnyardgrass plant response rating (barnyardgrass [1]; [24]): 100 | Plant response rating, Barnyardgrass (barnyardgrass [1]; [25]): 90 | Blackgrass plant response rating (blackgrass [2]; [24]): 90 | Plant response rating, Blackgrass (blackgrass [2]; [25]): 80 | Corn plant response rating (corn [3]; [24]): 80 | Plant response rating, Corn (corn [3]; [25]): 30 | Foxtail, Giant plant response rating (foxtail, giant [4]; [24]): 100 | Plant response rating, Foxtail, Giant (foxtail, giant [4]; [25]): 100 | Kochia plant response rating (kochia [5]; [24]): 90 | Plant response rating, Kochia (kochia [5]; [25]): 70 | Oat, Wild plant response rating (oat, wild [6]; [24]): 90 | Plant response rating, Oat, Wild (oat, wild [6]; [25]): 50 | Pigweed, Palmer plant response rating (pigweed, palmer [7]; [24]): 90 | Plant response rating, Pigweed, Palmer (pigweed, palmer [7]; [25]): 50 | Ragweed plant response rating (ragweed [8]; [24]): 40 | Plant response rating, Ragweed (ragweed [8]; [25]): 0 | Ryegrass, Italian plant response rating (ryegrass, Italian [9]; [24]): 100 | Plant response rating, Ryegrass, Italian (ryegrass, Italian [9]; [25]): 90 | Soybean plant response rating (soybean [10]; [24]): 100 | Plant response rating, Soybean (soybean [10]; [25]): 30 | Wheat plant response rating (wheat [11]; [24]): 90 | Plant response rating, Wheat (wheat [11]; [25]): 30 | Plant response rating, Barnyardgrass (barnyardgrass [12]; 500 g ai/ha, postemergence): 70 | Plant response rating, Barnyardgrass (barnyardgrass [12]; Postemergence, 125 g ai/ha): 50 | Plant response rating, Blackgrass (blackgrass [13]; 500 g ai/ha, postemergence): 90 | Plant response rating, Blackgrass (blackgrass [13]; Postemergence, 125 g ai/ha): 60 | Plant response rating, Corn (corn [14]; 500 g ai/ha, postemergence): 80 | Plant response rating, Corn (corn [14]; Postemergence, 125 g ai/ha): 70 | Plant response rating, Foxtail, Giant (foxtail, giant [15]; 500 g ai/ha, postemergence): 90 | Plant response rating, Foxtail, Giant (foxtail, giant [15]; Postemergence, 125 g ai/ha): 90 | Plant response rating, Kochia (kochia [16]; 500 g ai/ha, postemergence): 80 | Plant response rating, Kochia (kochia [16]; Postemergence, 125 g ai/ha): 50 | Plant response rating, Oat, Wild (oat, wild [17]; 500 g ai/ha, postemergence): 80 | Plant response rating, Oat, Wild (oat, wild [17]; Postemergence, 125 g ai/ha): 40 | Plant response rating, Pigweed, Palmer (pigweed, palmer [18]; 500 g ai/ha, postemergence): 60 | Plant response rating, Pigweed, Palmer (pigweed, palmer [18]; Postemergence, 125 g ai/ha): 20 | Plant response rating, Ragweed (ragweed [19]; 500 g ai/ha, postemergence): 30 | Plant response rating, Ragweed (ragweed [19]; Postemergence, 125 g ai/ha): 0 | Plant response rating, Ryegrass, Italian (ryegrass, Italian [20]; 500 g ai/ha, postemergence): 100 | Plant response rating, Ryegrass, Italian (ryegrass, Italian [20]; Postemergence, 125 g ai/ha): 60 | Plant response rating, Soybean (soybean [21]; 500 g ai/ha, postemergence): 100 | Plant response rating, Soybean (soybean [21]; Postemergence, 125 g ai/ha): 100 | Plant response rating, Wheat (wheat [22]; 500 g ai/ha, postemergence): 50 | Plant response rating, Wheat (wheat [22]; Postemergence, 125 g ai/ha): 40 | Plant response rating, Galium (galium; 500 g ai/ha, postemergence): 100 | Plant response rating, Galium (galium; Postemergence, 125 g ai/ha): 100 | Plant response rating, Horseweed (horseweed; 500 g ai/ha, postemergence): 20 | Plant response rating, Horseweed (horseweed; Postemergence, 125 g ai/ha): 0 | Plant response rating, Barnyardgrass (Flood) (barnyardgrass [23]): 45 | Plant response rating, Ducksalad (Flood) (ducksalad): 10 | Plant response rating, Rice (Flood) (rice): 15 | Plant response rating, Sedge, Umbrella (Flood) (sedge, umbrella): 45
